Experiments:
hemorrhaged rats [1] = test: Fixed-pressure hemorrhage model, centhaquin in hypertonic saline; format: in vivo, rat
Protocol: A sham group of rats was cannulated, but not hemorrhaged. A vehicle group received hypertonic saline. Treatment groups received centhaquin (free base) (0.006, 0.017, or 0.05 mg/kg) in hypertonic saline. The values are expressed as mean±S.E.M. with n=6 rats in each group.
FIGS. 9-12 show the effect of centhaquin on blood lactate and base deficit in hemorrhaged rats (FIG. 9); on mean arterial pressure and heart rate (FIG. 10); on cardiac output and stroke volume (FIG. 11); and on systemic vascular resistance and stroke work (FIG. 12). Like the tests of FIG. 8, a sham group of rats was cannulated but not hemorrhaged, a vehicle group received hypertonic saline, and treatment groups received free base centhaquin (0.006, 0.017, or 0.05 mg/kg) in hypertonic saline. The values are expressed as mean±S.E.M. with n=6 rats in each group. *p<0.05 compared to baseline, #p<0.05 compared to hemorrhage, Δp<0.05 compared to vehicle treated group.
FIG. 13 is a plot of fraction survival vs. time for groups of hemorrhaged rats. The sham group of rats was cannulated, but not hemorrhaged. The vehicle group received hypertonic saline, while treatment groups received centhaquin (free base) (0.006, 0.017, or 0.05 mg/kg) in hypertonic saline.
Centhaquin increased the survival time of hemorrhaged rats compared to hypertonic saline treatment. Median survival time for 50% survival rate of rats treated with hypertonic saline was 137±12 minutes, while for rats treated with centhaquin it was 375±25 minutes. Fraction survival at 250 min was 0 when resuscitated with hypertonic saline, while treatment with centhaquin improved the fraction survival to 0.8. Even at 480 min after resuscitation with centhaquin, the fraction survival was 0.2. […] The findings of the present study are novel, unexpected, and are important due to recent reports of large clinical studies showing hypertonic saline has no benefit over normal saline in patients with hypovolemic shock or severe traumatic brain injury (Bulger, May et al. 2010; Bulger, May et al. 2011).

hemorrhaged rats [2] = test: Fixed-pressure hemorrhage model, centhaquin dissolved in LR (100% SBV); format: in vivo, rat
Protocol: In the studies disclosed below, a rodent model of fixed-pressure hemorrhage without tissue trauma was used. This model limits factors that can influence the activity of a drug that is being investigated for the first time as a resuscitation agent. This hemorrhage model was made more severe by maintaining the hypotension for 30 minutes from the onset of hemorrhage to reach a base deficit of greater than −12 mEq/L (Gulati, Sen et al. 1997). In this irreversible situation, compensatory mechanisms fail (decompensatory phase), and a tremendous decrease in blood flow to all organs occurs, causing hypoperfusion leading to tissue hypoxia and end-organ failure (Gulati, Sen et al. 1997).
A rodent model of fixed-pressure hemorrhage without tissue trauma was used in a preliminary study. This hemorrhage model was made more severe by maintaining the hypotension for 30 min from the onset of hemorrhage to reach a base deficit of greater than −12 mEq/L (Gulati, Sen et al. 1997). […] Following groups were studied: Lactated Ringer's solution (LR-100) (100% shed blood volume (SBV)), or centhaquin (free base) (0.017, 0.05 and 0.15 mg/kg) dissolved in LR (100% SBV), or LR-300 (300% SBV).

[3] = system: isolated perfused rabbit heart; conditions: Bhatnagar, Pande et al. 1985; cited from earlier work
dog femoral artery = conditions: 10 and 20 μg locally into femoral artery; Srimal, Mason et al. 1990; cited from earlier work
hemorrhaged rats [4] = test: Time by which MAP falls back to 35 mmHg in hemorrhaged rats, low volume resuscitation; format: in vivo, rat
Protocol: In another study, the effect of centhaquin resuscitation on the amount of norepinephrine (NE) required to maintain mean arterial pressure (MAP) and the time by which MAP falls back to 35 mmHg in hemorrhaged rats was determined. Male, adult rats were anesthetized with urethane and a pressure catheter SPR-320 was placed in the femoral artery, and a pressure-volume catheter SPR-869 was placed in the left ventricle. Hemorrhage was induced by withdrawing blood and MAP was maintained at 35 mmHg for 30 minutes followed by resuscitation.
Two sets of experiments were performed. First, the amount of NE required to maintain MAP at 70 mmHg in normal saline (NS) or centhaquin (0.05 mg/kg) treated rats (volume equal to blood loss) was determined. Second, the time by which MAP fell back to 35 mmHg in rats treated with 3% hypertonic saline (HS) or centhaquin (0.05 mg/kg) (volume one-fifth of blood loss) was determined. […] In a second set of experiments, hemorrhaged rats were resuscitated with either HS or centhaquin (one-fifth the volume of blood loss).

[5] = 0.05 mg/kg, 60 min following resuscitation
[6] = 0.05 mg/kg, one-fifth the volume of blood loss

Cc1cccc(N2CCN(CCc3ccc4ccccc4n3)CC2)c1 [centhaquin, 2-[2-(4-(3-methyphenyl)-1-piperazinyl)ethyl]-quinoline]
survival time compared to other groups (hemorrhaged rats [1]; 0.017 mg/kg): maximal survival time | Fraction survival (hemorrhaged rats [1]; at 250 min): 0.8 | Fraction survival (hemorrhaged rats [1]; at 480 min after resuscitation): 0.2 | Median survival time for 50% survival rate (hemorrhaged rats [1]; centhaquin in hypertonic saline): 375 ± 25 min | decrease in systemic vascular resistance (hemorrhaged rats [2]; 0.017 mg/kg): 57% | increase in MAP (hemorrhaged rats [2]; 0.017 mg/kg): 55% | increase in cardiac output (hemorrhaged rats [2]; 0.017 mg/kg): 260% | survival time (hemorrhaged rats [2]; 0.017 mg/kg in LR (100% SBV)): 291 ± 57 min | blood lactate levels (hemorrhaged rats [2]; 0.017 mg/kg, 60 min following resuscitation): 3.55 ± 0.07 mmol/L | decrease in systemic vascular resistance (hemorrhaged rats [2]; 0.05 mg/kg): 41% | increase in cardiac output (hemorrhaged rats [2]; 0.05 mg/kg): 180% | survival time (hemorrhaged rats [2]; 0.05 mg/kg in LR (100% SBV)): 387 ± 39 min | resuscitation compared to LR-300 (hemorrhaged rats [2]; 0.05 mg/kg in LR-100 vs LR-300 (300% SBV)): more effective in resuscitation | blood lactate levels (hemorrhaged rats [2]; [5]): 4.08 ± 0.28 mmol/L | increase in MAP (hemorrhaged rats [2]; [5]): 59% | inotropic effect, ventricular contractions [3]: positive inotropic effect | blood flow (dog femoral artery): increased blood flow | blood lactate lower compared to hypertonic saline (hemorrhaged rats [4]; [6]): 44% | time by which MAP fell back to 35 mmHg (hemorrhaged rats [4]; [6]): 148 ± 15 min | survival after blood transfusion (hemorrhaged rats [4]; blood transfusion one-fifth the volume of blood loss after MAP fell to 35 mmHg): 788 min

Reference: patent publication US20150250782A1, “Methods and Compositions for Hypotensive Resuscitation” (Pharmazz, Inc., priority 2012, published 2015)
